Reference: patent US12173344B2, “Fluorescent fusion based heterologous peptide production” (Stellenbosch University, priority 2020, dated 2024)
Where no end group is shown, it is not given here.

Experiments:
Type in all cases: cell-based
[1] = system: Erythrocyte; assay: Erythrocyte lysis (haemolysis) assay; conditions: fusion not cleaved
Source text: FIG. 18: Top Panel-SDS-PAGE of purified GFP-LLO and LLO used in erythrocyte lysis assay. Left: Stained gel. Right: Fluorescent image of GFP-LLO and GFP, L: Ladder (NEB ladder #P7712), 1: Uncut GFP-LLO, 2: Cleaved, IMAS purified and desalted LLO. A: GFP-LLO, B: LLO. Bottom Panel-Erythrocyte haemolysis following GFP-LLO exposure at varying pH. Relative haemoglobin absorbance was collected at 540 nm, values expressed as percentage of positive control, mean±SEM (n=3), Analysis via t-test concluded *=p<0.001, ***=p<0.0001 vs Untreated.

[2] = system: Listeria monocytogenes EDG-e; assay: Antilisterial activity, spot plate and SDS-PAGE agar overlay
Protocol: While the respective bacteriocins were fused to GFP and produced a fluorescent complex, it was important to determine that antimicrobial activity was due to the liberated bacteriocin. Antimicrobial activity of plantaricin 423 and mundticin ST4SA was assessed against Listeria monocytogenes EDG-e grown on Brain Heart Infusion media (BHI) containing […] chloramphenicol. The spot plate method was performed on solid medium (1% w/v agar) seeded with Listeria monocytogenes EDG-e. SDS-PAGE separations were assayed for activity by casting the polyacrylamide gel in an agar bilayer seeded with Listeria monocytogenes EDG-e. Before casting, the poly acrylamide gels were fixed for 20 min in a 25% isopropanol, 10% acetic acid fixing solution and then rinsed 3×15 min with sterile ultra-pure water.
Cleavage parameters were optimized using a modified method from that supplied by the manufacturer. The WELQut-to-Sample ratios were set to 1:100, 1:50, 1:25, 1:5 (v/v) for 50 μL samples of GFP-PlaX and GFP-MunX, respectively, and diluted to a final volume of 250 μL in WELQut cut buffer. The approximate corresponding units of WELQ to 466.5 μg of GFP-PlaX was 2.5 U, 5 U, 10 U and 50 U respectively. The approximate corresponding units of WELQ to 547.5 μg of GFP-MunX was 2.5 U, 5 U, 10 U and 50 U respectively. Cleavage reactions were incubated at 28° C., and 50 μL samples were collected at 2 h, 4 h, 8 h, and 16 h, respectively. Cleavage was assessed by the spot plate method using BHI solid medium (1% w/v agar) seeded with Listeria monocytogenes EGD-e.
Mundticin ST4SA and plantaricin 423 were cleaved from one millilitre of His-tag purified GFP-MunX and GFP-PlaX, respectively, under optimal cleavage conditions. Cleavage reactions were purified using high performance liquid chromatography (HPLC), single peaks were spot tested for antilisterial activity.

[3] = system: Lactobacillus sakei; assay: Antimicrobial activity (clear zones on plates) against Lactobacillus sakei
Protocol: (§1) For initial antimicrobial efficacy testing, both GFP-fused and non-GFP-fused pLanthipeptides were loaded (GFP-pNisin and GFP-pPep5) and cleaved directly in wells with trypsin (5 μg/mL for GFPpNisin) or thrombin (3 U/100 μL for GFP-pPep5). Antimicrobial activity was evaluated against Lactobacillus sakei for nisin and against S. carnosus for GFP-pPep5. Plates were incubated at 30° C. overnight until visible clear zones were observed. Lactobacillus sakei was cultured in MRS broth or agar and S. carnosus was cultured in Mueller Hinton Broth or agar.
(§2) GFP-pLanthipeptides were cleaved at 37° C. for 4 h and 20 h, with thrombin or hNisP. Heterologously expressed hNisP was added to concentrations of 0.01 ng/μL, 5 ng/μL, 10 ng/μL, 50 ng/μL and 70 ng/μL. Thrombin was added at 0.75 U, 4.5 U, 3 U and 6 U. Cleavage reactions were performed in 100 μL reactions and protein concentrations of GFP-pLanthipeptides were adjusted to final concentrations of 1 mg/ml with the exception of GFP-pPep5Th which was adjusted to 0.9 mg/mL. Cleavage reactions were stopped by the addition of protease inhibitors. Antimicrobial activity was evaluated against Lb. sakei and S. carnosus for GFP-pNisin (30 μL) and GFP-pPep5 (80 μL), respectively. Plates were incubated at 30° C. overnight until visible clear zones were observed. Samples were separated using SDS-PAGE.

[4] = system: S. carnosus; assay: Antimicrobial activity (clear zones on plates) against S. carnosus; conditions: thrombin and hNisP, 4 h and 20 h cleavage
Protocol: as §1, §2

[5] = after cleavage / liberation of the core peptide, expression at 26° C.

## GFP-LLO
[1]
  Activity of LLO while fused to fluorescent partner: still has activity

## GFP-MunX: GFP fused to mature mundticin ST4SA with WELQut cleavage site (SEQ ID NO:32)
[2]; SDS-PAGE gel overlay after WELQut cleavage, zone at the size/location of the named species
  Antilisterial activity at the band location: zones of antilisterial activity
[2]; WELQut cleaved samples, SDS-PAGE gel overlay
  Antilisterial activity: clear zones
[2]; cleaved fusion protein, compared with the other GFP-bacteriocin
  Specific activity: higher specific activity
[2]; uncleaved fusion protein, spot plate
  Antilisterial activity: did not show antilisterial activity

## GFP-pNisin: N-terminal His tagged GFP with WELQut site fused to precursor nisin (SEQ ID NO:28/30)
[3]; [5]
  Antimicrobial activity: highest activity
[3]; after cleavage with trypsin, expression at a range of temperatures, induction times and IPTG concentrations
  Antimicrobial activity: activity was detected
[3]; uncleaved sample
  Antimicrobial activity: absent

## HispNisin: His-tagged precursor nisin, no fluorescent fusion (MSTKDFNLDLVSVSKKDSGASPRITSISLCTPGCKTGALMGCNMKTATCHCSIHVSK; cysteine pairing not given here; also: His tag, not shown in chain; UniProt P13068 1-57, looked up)
[3]; [5]
  Antimicrobial activity: decrease
[3]; after cleavage with trypsin, expression at 18° C., soluble and insoluble fractions
  Antimicrobial activity: highest activity
[3]; after cleavage with trypsin, expression at 37° C.
  Antimicrobial activity: substantial loss in activity

## Pep5: lanthipeptide liberated from GFP-pPep5 by thrombin or hNisP (TAGPAIRASVKQCQKTLKATRLFTVSCKGKNGCK; also: lanthipeptide (lantibiotic) thioether rings, not placed; UniProt P19578 27-60, looked up)
[4]
  Effect on antimicrobial activity of increasing concentration and cleavage time: detrimental effect
